# Measurements: ChEMBL document CHEMBL3877294, “Discovery of Ruzasvir (MK-8408): A Potent, Pan-Genotype HCV NS5A Inhibitor with Optimized Activity against Common Resistance-Associated Polymorphisms” (J Med Chem, 2017)
# Experiments:
# Format in all cases: cell-based
# [1] = system: Huh-7; experiment: Inhibition of HCV genotype-4a NS5A infected in human HuH7 cells by luciferase reporter gene assay; conditions: Hepatitis C virus subtype 4a
# [2] = system: Nonstructural protein 5A (Hepatitis C virus), Q5L478 [UNDEFINED MUTATION]; experiment: Inhibition of HCV genotype-1a NS5A L31V mutant infected in human HuH7 cells by luciferase reporter gene assay; conditions: Hepatitis C virus subtype 1a; Huh-7
# [3] = system: Huh-7; experiment: Inhibition of HCV genotype-2b NS5A harboring methionine at position 31 infected in human HuH7 cells by luciferase reporter gene assay; conditions: Hepatitis C virus subtype 2b
# [4] = system: Huh-7; experiment: Inhibition of HCV genotype-3a NS5A infected in human HuH7 cells by luciferase reporter gene assay; conditions: Hepatitis C virus subtype 3a
# [5] = system: Huh-7; experiment: Inhibition of HCV genotype-1a NS5A infected in human HuH7 cells by luciferase reporter gene assay; conditions: Hepatitis C virus subtype 1a
# [6] = system: T1, Nonstructural protein 5A (Hepatitis C virus), Q5L478 [Y93H]; experiment: Inhibition of HCV genotype-1a NS5A Y93H mutant infected in human HuH7 cells by luciferase reporter gene assay; conditions: Hepatitis C virus subtype 1a; Huh-7
# T1 sequence (whole entry): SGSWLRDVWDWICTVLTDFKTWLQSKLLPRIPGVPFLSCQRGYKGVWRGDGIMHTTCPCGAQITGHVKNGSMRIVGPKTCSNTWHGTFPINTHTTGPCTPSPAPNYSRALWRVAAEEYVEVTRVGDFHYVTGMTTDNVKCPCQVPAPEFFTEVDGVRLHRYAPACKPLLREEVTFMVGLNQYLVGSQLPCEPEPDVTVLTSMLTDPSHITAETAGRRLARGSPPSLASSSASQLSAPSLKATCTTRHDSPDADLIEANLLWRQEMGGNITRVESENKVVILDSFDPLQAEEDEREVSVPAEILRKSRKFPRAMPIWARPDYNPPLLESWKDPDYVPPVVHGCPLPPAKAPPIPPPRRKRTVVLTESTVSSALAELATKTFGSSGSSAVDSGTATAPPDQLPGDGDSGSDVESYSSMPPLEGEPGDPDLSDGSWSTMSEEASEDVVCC
SMILES,EC90 [1],EC90 [2],EC90 [3],EC90 [4],EC90 [5],EC90 [6]
COC(=O)N[C@H](C(=O)N1CCC[C@H]1c1ncc(-c2cc(F)c3c(c2)OC(c2ccc(C4CC4)s2)n2c-3cc3cc(-c4cnc([C@@H]5C[C@H]6C[C@H]6N5C(=O)[C@@H](NC(=O)OC)C(C)C)[nH]4)ccc32)[nH]1)C(C)C (some centres undefined),5 pM,12 pM,300 pM,7 pM,4 pM,30 pM
CCCc1ncc(C2Oc3cc(-c4cnc([C@@H]5CCCN5C(=O)[C@@H](NC(=O)OC)C(C)C)[nH]4)cc(F)c3-c3cc4cc(-c5cnc([C@@H]6C[C@H]7C[C@H]7N6C(=O)[C@@H](NC(=O)OC)C(C)C)[nH]5)ccc4n32)s1 (some centres undefined),12 pM,13 pM,140 pM,9 pM,5 pM,21 pM
COC(=O)N[C@H](C(=O)N1CCC[C@H]1c1ncc(-c2cc(F)c3c(c2)OC(c2cnc(C4CC4)o2)n2c-3cc3cc(-c4cnc([C@@H]5CCCN5C(=O)[C@@H](NC(=O)OC)C(C)C)[nH]4)ccc32)[nH]1)C(C)C (some centres undefined),30 pM,460 pM,1100 pM,180 pM,7 pM,1800 pM
CCc1ncc(C2Oc3cc(-c4cnc([C@@H]5CCCN5C(=O)[C@@H](NC(=O)OC)C(C)C)[nH]4)cc(F)c3-c3cc4cc(-c5cnc([C@@H]6C[C@H]7C[C@H]7N6C(=O)[C@@H](NC(=O)OC)C(C)C)[nH]5)ccc4n32)s1 (some centres undefined),8 pM,22 pM,210 pM,12 pM,5 pM,40 pM
COC(=O)N[C@H](C(=O)N1CCC[C@H]1c1ncc(-c2cc(F)c3c(c2)OC(c2ccc(C(=O)N(C)C)s2)n2c-3cc3cc(-c4cnc([C@@H]5CCCN5C(=O)[C@@H](NC(=O)OC)C(C)C)[nH]4)ccc32)[nH]1)C(C)C (some centres undefined),24 pM,35 pM,450 pM,120 pM,14 pM,470 pM
COC(=O)N[C@H](C(=O)N1CCC[C@H]1c1ncc(-c2cc(F)c3c(c2)OC(c2csc(C4CC4)c2)n2c-3cc3cc(-c4cnc([C@@H]5CCCN5C(=O)[C@@H](NC(=O)OC)C(C)C)[nH]4)ccc32)[nH]1)C(C)C (some centres undefined),3 pM,60 pM,880 pM,7 pM,2 pM,260 pM
COC(=O)N[C@H](C(=O)N1CCC[C@H]1c1ncc(-c2cc(F)c3c(c2)OC(c2ccc(CC4CC4)s2)n2c-3cc3cc(-c4cnc([C@@H]5CCCN5C(=O)[C@@H](NC(=O)OC)C(C)C)[nH]4)ccc32)[nH]1)C(C)C (some centres undefined),3 pM,11 pM,–,4 pM,3 pM,180 pM
COC(=O)N[C@H](C(=O)N1CCC[C@H]1c1ncc(-c2cc(F)c3c(c2)OC(c2cnco2)n2c-3cc3cc(-c4cnc([C@@H]5CCCN5C(=O)[C@@H](NC(=O)OC)C(C)C)[nH]4)ccc32)[nH]1)C(C)C (some centres undefined),–,–,14100 pM,250 pM,60 pM,8500 pM
CCCc1ccc(C2Oc3cc(-c4cnc([C@@H]5CCCN5C(=O)[C@@H](NC(=O)OC)C(C)C)[nH]4)cc(F)c3-c3cc4cc(-c5cnc([C@@H]6CCCN6C(=O)[C@@H](NC(=O)OC)C(C)C)[nH]5)ccc4n32)s1 (some centres undefined),5 pM,13 pM,440 pM,9 pM,5 pM,69 pM
COC(=O)N[C@H](C(=O)N1CCC[C@H]1c1ncc(-c2cc(F)c3c(c2)OC(c2cc(C)c(C4CC4)s2)n2c-3cc3cc(-c4cnc([C@@H]5CCCN5C(=O)[C@@H](NC(=O)OC)C(C)C)[nH]4)ccc32)[nH]1)C(C)C (some centres undefined),2 pM,9 pM,880 pM,4 pM,2 pM,1700 pM
COC(=O)N[C@H](C(=O)N1CCC[C@H]1c1ncc(-c2cc(F)c3c(c2)OC(c2cnc(C(C)C)s2)n2c-3cc3cc(-c4cnc([C@@H]5CCCN5C(=O)[C@@H](NC(=O)OC)C(C)C)[nH]4)ccc32)[nH]1)C(C)C (some centres undefined),4 pM,22 pM,140 pM,6 pM,2 pM,50 pM
COC(=O)N[C@H](C(=O)N1CCC[C@H]1c1ncc(-c2cc(F)c3c(c2)OC(c2cc(F)c(C4CC4)s2)n2c-3cc3cc(-c4cnc([C@@H]5CCCN5C(=O)[C@@H](NC(=O)OC)C(C)C)[nH]4)ccc32)[nH]1)C(C)C (some centres undefined),14 pM,29 pM,680 pM,12 pM,5 pM,170 pM
